Molecular target: T1, Nav1.4 (Rattus norvegicus, UniProt P15390)
T1 construct: expressed in transfected cells; host or cells: HEK293T (ATCC CRL-3216)
Assay: Whole-cell patch clamp of rNav1.4 + Navβ1 in HEK293T cells with optogenetic PI-phosphatases and diC8PI(4,5)P2 in the pipette
Type: cell-based
Details: for ILATE: % of IPEAK
Description: Purified diC8PI(4,5)P2 was purchased from Echelon Biosciences. For oocyte studies, plasmid vectors were linearized after the Xenopus β-globulin domain of each construct, verified by gel electrophoresis, and transcribed in vitro using the mMESSAGE mMACHINE T7 Transcription Kit (Thermo Fisher Scientific) to generate cRNA according to the manufacturer's protocol. Rat Nav1.4 (SCN4 Å; NM_013178.2) was handled in pBud, a CMV driven vector. To study Nav1.4 currents, the plasmid was used in concert with Navβ1 (SCN1B, isoform b; NM_001037) in pRAT, a CMV driven vector. The inactivation deficient mutant, Nav1.4-WCW was handled in pCap. CRY2-Sac2 was subcloned into pMAX(+) for expression in mammalian cells, or the generation of cRNA for use in Xenopus oocytes. The open reading frame of pseudojanin was designed with an N-terminal CRY2-tag in the pMAX(+) vector and was generated by Genscript (Piscataway, NY).
Human embryonic kidney (HEK293T) cells were acquired from American Type Culture Collection (ATCC, Cat #CRL-3216) and were maintained in Dulbecco's modified Eagle's medium (ATCC) supplemented with 100 units/ml penicillin, 100 μg/ml streptomycin, and 10% (vol/vol) fetal bovine serum. Cells were routinely confirmed to be mycoplasma free via PCR and Hoescht stain. The cells were incubated in a 37° C., humified incubator supplemented with 5% CO2. For our experiments, cells were seeded on glass coverslips in 35 mm culture dishes at least one day before transfection. Cells were transiently transfected with rNav1.4, Navβ1, CIBN-CAAX and CRY2-5-PtaseOCRL or CRY2-pseudojanin, along with the near-infrared PI(4,5)P2 biosensor iRFP-PHPLCδ1 as indicated, in OptiMEM using polyethyleneimine (PEI) for 1-2 hours at a ratio of 1 μg of DNA to 4 μL PEI. The near red fluorescent protein, mCherry, was typically used as a transfection marker. The cells were studied 24-48 hours after transfection.
Whole-cell patch clamp. HEK293T cells were studied by whole cell patch-clamp. Currents were recorded with a Tecella Pico-2 amplifier (Tecella) controlled using WinWCP software (University of Strathclyde). Currents were low pass (Bessel) filtered at 9 kHz and digitized at 50 kHz. […] The cells were perfused using a multichannel gravity-driven perfusion manifold (Warner) with an extracellular solution containing (in mM): 130 NaCl, 5 CsCl, 1.2 MgCl2·6H2O, 1.5 CaCl2), 8 Glucose, 10 HEPES. Data was collected from cells with a series resistance less than 15 MQ. The junction potential was less than 3 mV and was not compensated.
Current-voltage (I-V) relationships were evoked from a holding potential of −90 mV by 400 ms test pulses between −80 and 50 mV, in 5 mV increments. Steady-state inactivation was studied by holding the cells at −140 mV and then comparing currents evoked by 50 ms test pulses between −140 mV and 30 mV to those evoked by a 100 ms prepulse to […]. A 10 s interpulse interval was used in both cases. Normalized peak current values are plotted against the prepulse potential (mV). To quantify voltage-dependence, the data were normalized, plotted against the driving force to generate normalized conductance-voltage relationships (G-V) that were fit using a Boltzmann function, I=IMAX/(1+exp[V−V ½/K]), where IMAX is the maximum current and K is the slope factor. Recovery from fast inactivation was studied by holding cells at −100 mV and comparing currents evoked by a pair of 50 ms test step to −30 mV separated by an interpulse interval that increased in duration by 5 ms increments per sweep. The time constant for recovery from inactivation (τinact) was obtained from mono-exponential fits of the normalized current amplitude to the recovery time using It=Imax+A[e^−t/τ], where ‘A’ is the amplitude of components and ‘t’ is time. Whole-cell currents were normalized to cell capacitance. Mean±SEM capacitance values were 12±4 pF for HEK293T cells. […]

[1] = 200 μM diC8-PIP2 in patch pipette
[2] = 200 μM diC8PI(4,5)P2, CRY2-PJ cells
[3] = 200 μM diC8PI(4,5)P2 vs CRY2-PJ BL
[4] = CRY2-5POCRL, BL + 200 μM diC8PI(4,5)P2
[5] = CRY2-5POCRL, Control + 200 μM diC8PI(4,5)P2
[6] = CRY2-PJ, BL + 200 μM diC8PI(4,5)P2
[7] = CRY2-PJ, Control + 200 μM diC8PI(4,5)P2

T1 sequence (P15390 whole entry): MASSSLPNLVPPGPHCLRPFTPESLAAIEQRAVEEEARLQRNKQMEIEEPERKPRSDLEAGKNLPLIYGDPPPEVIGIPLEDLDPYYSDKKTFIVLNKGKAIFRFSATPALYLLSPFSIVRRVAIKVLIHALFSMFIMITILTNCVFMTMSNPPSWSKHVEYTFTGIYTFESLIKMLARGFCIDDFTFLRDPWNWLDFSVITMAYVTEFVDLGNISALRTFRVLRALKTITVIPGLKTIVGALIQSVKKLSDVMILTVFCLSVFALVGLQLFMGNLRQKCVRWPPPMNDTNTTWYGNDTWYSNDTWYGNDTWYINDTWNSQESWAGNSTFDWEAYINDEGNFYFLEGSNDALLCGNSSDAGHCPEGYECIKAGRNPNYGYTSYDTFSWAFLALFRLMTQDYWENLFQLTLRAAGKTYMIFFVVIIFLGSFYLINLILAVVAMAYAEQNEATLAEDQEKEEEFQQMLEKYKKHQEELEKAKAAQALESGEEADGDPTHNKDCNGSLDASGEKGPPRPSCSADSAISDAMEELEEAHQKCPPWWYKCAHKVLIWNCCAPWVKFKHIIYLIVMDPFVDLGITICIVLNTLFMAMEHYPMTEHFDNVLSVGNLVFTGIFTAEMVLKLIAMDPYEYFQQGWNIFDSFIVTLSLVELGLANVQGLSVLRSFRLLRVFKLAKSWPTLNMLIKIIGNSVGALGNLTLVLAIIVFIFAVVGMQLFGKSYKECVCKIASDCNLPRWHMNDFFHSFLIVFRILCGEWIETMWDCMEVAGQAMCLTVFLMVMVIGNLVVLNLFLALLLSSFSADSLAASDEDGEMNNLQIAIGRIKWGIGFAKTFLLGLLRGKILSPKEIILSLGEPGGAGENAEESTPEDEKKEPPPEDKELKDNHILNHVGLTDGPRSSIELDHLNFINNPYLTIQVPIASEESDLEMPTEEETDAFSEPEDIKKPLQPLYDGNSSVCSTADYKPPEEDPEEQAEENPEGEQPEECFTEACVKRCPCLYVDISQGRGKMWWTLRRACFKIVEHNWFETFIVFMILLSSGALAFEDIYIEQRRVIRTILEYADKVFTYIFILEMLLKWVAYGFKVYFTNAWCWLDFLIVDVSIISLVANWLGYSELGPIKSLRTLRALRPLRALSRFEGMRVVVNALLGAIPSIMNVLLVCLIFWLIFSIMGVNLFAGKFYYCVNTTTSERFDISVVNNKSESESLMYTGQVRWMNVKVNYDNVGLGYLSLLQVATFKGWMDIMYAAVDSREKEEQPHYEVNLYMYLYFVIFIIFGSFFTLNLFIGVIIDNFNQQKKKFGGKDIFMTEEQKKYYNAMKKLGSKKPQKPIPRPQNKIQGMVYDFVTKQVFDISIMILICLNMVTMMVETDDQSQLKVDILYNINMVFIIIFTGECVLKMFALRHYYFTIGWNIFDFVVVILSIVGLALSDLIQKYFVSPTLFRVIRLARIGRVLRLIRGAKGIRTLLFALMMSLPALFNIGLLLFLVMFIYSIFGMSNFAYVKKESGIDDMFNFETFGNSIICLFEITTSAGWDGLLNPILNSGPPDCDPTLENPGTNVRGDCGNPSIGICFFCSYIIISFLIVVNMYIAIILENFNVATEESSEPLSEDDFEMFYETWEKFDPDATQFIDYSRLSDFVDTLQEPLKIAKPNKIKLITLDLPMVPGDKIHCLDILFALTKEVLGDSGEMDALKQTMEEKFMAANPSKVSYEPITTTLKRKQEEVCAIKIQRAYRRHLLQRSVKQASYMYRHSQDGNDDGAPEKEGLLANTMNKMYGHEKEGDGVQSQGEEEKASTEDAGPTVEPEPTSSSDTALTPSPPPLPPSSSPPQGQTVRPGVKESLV
T1 sequence (Q07699 19-218 partner): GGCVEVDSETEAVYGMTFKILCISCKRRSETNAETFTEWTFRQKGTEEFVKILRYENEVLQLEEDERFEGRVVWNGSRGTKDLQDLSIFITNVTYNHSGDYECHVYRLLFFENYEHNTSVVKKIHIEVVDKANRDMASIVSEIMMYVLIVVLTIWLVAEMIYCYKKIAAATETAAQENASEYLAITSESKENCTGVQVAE

`CCCCCCCC(=O)OC[C@H](COP(=O)(O)O[C@@H]1[C@H](O)[C@H](O)[C@@H](OP(=O)(O)O)[C@H](OP(=O)(O)O)[C@H]1O)OC(=O)CCCCCCC` [diC8-PIP2] was tested, and the “effect on V½ACT of Nav1.4” value [1] was “rightward shift”, the “effect on V½SSI of Nav1.4” value [1] was “no effect” and the “effect on CRY2-5POCRL effects on voltage-dependent gating” value (200 μM diC8PI(4,5)P2) was “precluded”. For the same compound, the “effect on CRY2-PJ photoactivation effects on V½act” value (200 μM diC8PI(4,5)P2) was “ameliorated”, the “right shift in V½act” value (200 μM diC8PI(4,5)P2, CRY2-5POCRL cells) was roughly 5 mV and the “effect on increase in the magnitude of the window current” value (200 μM diC8PI(4,5)P2, CRY2-PJ) was “abolished”. For the same compound, the “right-shift in V½SSI compared to untreated cells” value [2] was roughly 3 mV, the “right-shift in V½act compared to untreated cells” value [2] was −5.5 mV and the “overall excursion in mean V½ACT between diC8PI(4,5)P2 treated cells and control cells after photoactivation” value (200 μM diC8PI(4,5)P2 vs CRY2-5POCRL BL) was −12.5±3 mV. The “change in mean V½act between diC8PI(4,5)P2 treated cells and control cells after dephosphorylation” value [3] was −16±2 mV, the “shift in mean V½SSI between diC8PI(4,5)P2 treated cells and control cells after dephosphorylation” value [3] was −5.4±2 mV and the KAct [4] was 5.2 ± 0.3 mV. For the same compound, the KSSI [4] was −5.1 ± 1^ mV, the V½SSI [4] was −57 ± 1 mV and the V½act [4] was −32 ± 1 mV. The “tau (fast inactivation)” value [4] was 7.4 ± 0.6 ms, the IPEAK (CRY2-5POCRL, BL + 200 μM diC8PI(4,5)P2, −20 mV) was −268 ± 25 pA/pF and the IPEAK (CRY2-5POCRL, BL + 200 μM diC8PI(4,5)P2, −40 mV) was −202 ± 21 pA/pF. The IPEAK (CRY2-5POCRL, BL + 200 μM diC8PI(4,5)P2, −60 mV) was −19 ± 4 pA/pF, the ILATE [4] was 0.27 ± 0.02% and the KAct [5] was 5.0 ± 0.2 mV. The KSSI [5] was −5.0 ± 2^ mV, the V½SSI [5] was −58 ± 2 mV and the V½act [5] was −32 ± 1 mV. The “tau (fast inactivation)” value [5] was 6.0 ± 0.3 ms, the IPEAK (CRY2-5POCRL, Control + 200 μM diC8PI(4,5)P2, −20 mV) was −274 ± 32 pA/pF and the IPEAK (CRY2-5POCRL, Control + 200 μM diC8PI(4,5)P2, −40 mV) was −186 ± 28 pA/pF. For the same compound, the IPEAK (CRY2-5POCRL, Control + 200 μM diC8PI(4,5)P2, −60 mV) was −23 ± 6 pA/pF, the ILATE [5] was 0.26 ± 0.02% and the KAct [6] was 5.0 ± 1.0 mV. For the same compound, the KSSI [6] was −5.1 ± 0.5 mV, the V½SSI [6] was −54 ± 2 mV and the V½act [6] was −33 ± 4 mV. The “tau (fast inactivation)” value [6] was 5.1 ± 0.3 ms, the IPEAK (CRY2-PJ, BL + 200 μM diC8PI(4,5)P2, −20 mV) was −272 ± 24 pA/pF and the IPEAK (CRY2-PJ, BL + 200 μM diC8PI(4,5)P2, −40 mV) was −209 ± 22 pA/pF. The IPEAK (CRY2-PJ, BL + 200 μM diC8PI(4,5)P2, −60 mV) was −23 ± 3 pA/pF, the ILATE [6] was 0.38 ± 0.03% and the KAct [7] was 4.0 ± 0.7 mV. It also gave a KSSI [7] of −4.2 ± 1.0 mV, a V½SSI [7] of −55 ± 4 mV and a V½act [7] of −33 ± 3 mV. The “tau (fast inactivation)” value [7] was 4.7 ± 0.2 ms, the IPEAK (CRY2-PJ, Control + 200 μM diC8PI(4,5)P2, −20 mV) was −264 ± 18 pA/pF and the IPEAK (CRY2-PJ, Control + 200 μM diC8PI(4,5)P2, −40 mV) was −194 ± 24 pA/pF. For the same compound, the IPEAK (CRY2-PJ, Control + 200 μM diC8PI(4,5)P2, −60 mV) was −19 ± 2 pA/pF and the ILATE (CRY2-PJ, Control + 200 μM diC8PI(4,5)P2, pulse to −20 mV) was 0.37 ± 0.1%.

Reference: patent US20240358727A1, “MICROSCALE THERMOPHORESIS TO EVALUATE CHANNEL LIPID INTERACTIONS AND METHODS OF TREATING NAV CHANNELS RELATED DISEASES” (Northeastern University, priority 2023, published 2024)
